From the NIST ThermoML archive (doi:10.1016/j.jct.2016.02.009)

Test: molar heat capacity at constant pressure
Conditions: 101.33 kPa, Crystal 2, Small (less than 1 g) adiabatic calorimetry

CCCCCCCCCCCCCCn1cc[n+](C)c1.O=S(=O)([N-]S(=O)(=O)C(F)(F)F)C(F)(F)F
Conditions | molar heat capacity at constant pressure [J/K/mol]
4.89 K | 3.21
5 K | 3.43
5.1 K | 3.64
5.39 K | 4.23
5.69 K | 4.88
6 K | 5.63
6.34 K | 6.47
6.73 K | 7.47
7.11 K | 8.54
7.5 K | 9.67
7.9 K | 10.86
8.3 K | 12.12
8.7 K | 13.43
9.11 K | 14.79
9.52 K | 16.21
9.93 K | 17.69
10 K | 17.94
10.45 K | 19.63
11.1 K | 22.1
11.75 K | 24.67
12.39 K | 27.32
13.04 K | 30.06
13.7 K | 32.85
14.36 K | 35.72
15 K | 38.56
15.02 K | 38.63
15.8 K | 42.14
16.7 K | 46.22
17.61 K | 50.37
18.51 K | 54.57
19.42 K | 58.74
20 K | 61.41
20.33 K | 62.84
21.54 K | 68.49
23.07 K | 75.56
24.61 K | 82.47
25 K | 84.18
26.14 K | 89.18
27.68 K | 95.96
29.23 K | 102.6
30 K | 105.9
30.94 K | 110.1
32.82 K | 117.9
34.72 K | 125.4
35 K | 126.4
36.61 K | 132.8
38.5 K | 140.1
40 K | 145.8
40.39 K | 147.2
42.38 K | 154.5
44.49 K | 162.2
45 K | 164.1
46.6 K | 169.8
48.71 K | 177.1
50 K | 181.5
50.83 K | 184.3
52.96 K | 191.2
55.08 K | 198
57.2 K | 204.8
59.33 K | 211.5
60 K | 213.6
61.45 K | 218
63.59 K | 224.5
65.72 K | 230.7
67.86 K | 236.8
70 K | 242.6
70.01 K | 242.5
72.16 K | 248.4
74.3 K | 254.1
76.46 K | 260.1
78.61 K | 266.1
80 K | 269.2
80.77 K | 271.8
81.2 K | 272.4
82.94 K | 276.6
83.19 K | 277.4
85.13 K | 281.8
85.17 K | 281.5
87.16 K | 286.5
89.15 K | 291.4
90 K | 293.7
91.14 K | 296.2
93.13 K | 301
95.13 K | 305.5
97.13 K | 310.1
99.14 K | 314.6
100 K | 316.7
101.15 K | 319.3
103.16 K | 324
105.16 K | 328.1
107.17 K | 332.6
109.18 K | 336.8
110 K | 338.4
111.2 K | 340.6
113.23 K | 345
115.25 K | 349.2
117.27 K | 353.4
119.3 K | 357.4
120 K | 358.8
121.32 K | 361.5
123.35 K | 365.5
124.9 K | 368.4
125.83 K | 370.4
127.42 K | 373.3
128.64 K | 376
129.89 K | 378.2
130 K | 378.6
131.38 K | 381.2
132.35 K | 383
134.13 K | 386.5
134.81 K | 387.8
136.88 K | 391.8
137.28 K | 392.5
139.62 K | 397
139.75 K | 397.2
140 K | 397.8
142.22 K | 402.1
142.37 K | 402.3
144.69 K | 406.6
145.12 K | 407.7
147.16 K | 411.2
147.86 K | 412.6
149.63 K | 415.9
150 K | 416.6
150.61 K | 418
152.1 K | 420.5
153.36 K | 423.1
154.57 K | 425.1
156.12 K | 428.1
157.05 K | 429.7
158.87 K | 433.3
159.52 K | 434.5
160 K | 435.3
161.63 K | 438.6
161.99 K | 439.1
164.38 K | 443.7
164.46 K | 443.6
166.93 K | 448.2
167.13 K | 448.7
169.4 K | 453
169.88 K | 453.9
170 K | 454.1
171.87 K | 457.5
172.63 K | 459.1
174.33 K | 462.3
175.38 K | 464.4
176.79 K | 467
178.12 K | 469.7
179.25 K | 471.5
